Reference: US11591336B2 (Relay Therapeutics, Inc., priority 2017, dated 2023)
Counter-ions that a name gives are not always drawn.

The compounds below were run against SHP2 (Homo sapiens (Human), UniProt Q06124) (assay: SHP2 Allosteric Inhibition Assay (DiFMUP prompt fluorescence)). Details: 0.25 nM SHP2 activated with 0.5 μM peptide IRS1_pY1172(dPEG8)pY1222; substrate DiFMUP 100 μM; 25° C.
Chain of SHP2 (Q06124 whole entry): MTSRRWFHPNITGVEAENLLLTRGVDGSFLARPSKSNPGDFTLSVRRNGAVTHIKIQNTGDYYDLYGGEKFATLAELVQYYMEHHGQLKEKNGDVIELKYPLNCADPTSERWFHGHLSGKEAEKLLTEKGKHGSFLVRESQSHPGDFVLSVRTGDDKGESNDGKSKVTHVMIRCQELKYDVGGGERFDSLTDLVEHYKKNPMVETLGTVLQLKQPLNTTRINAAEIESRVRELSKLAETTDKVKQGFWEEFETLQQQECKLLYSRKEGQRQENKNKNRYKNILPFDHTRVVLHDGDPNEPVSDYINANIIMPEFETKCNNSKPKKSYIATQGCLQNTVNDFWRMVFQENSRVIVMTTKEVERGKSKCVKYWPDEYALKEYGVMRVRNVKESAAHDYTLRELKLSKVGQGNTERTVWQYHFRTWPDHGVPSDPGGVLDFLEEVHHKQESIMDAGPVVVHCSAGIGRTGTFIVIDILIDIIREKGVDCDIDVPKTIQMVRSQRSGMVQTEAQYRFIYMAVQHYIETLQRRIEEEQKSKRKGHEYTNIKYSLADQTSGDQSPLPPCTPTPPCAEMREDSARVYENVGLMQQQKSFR
Assay type: biochemical
With `C[C@@H]1CCN(c2n[nH]c3nc(N4CCC(C)(CN)CC4)cnc23)c2ccccc21` [Compound 49, (R)-(4-methyl-1-(3-(4-methyl-3,4-dihydroquinolin-1(2H)-yl)-1H-pyrazolo[3,4-b]pyrazin-6-yl)piperidin-4-yl)methanamine] the IC50 was < 1000 nM.
`C[C@H]1CCN(c2n[nH]c3nc(N4CCC(C)(CN)CC4)cnc23)c2ccccc21` [Compound 50, (S)-(4-methyl-1-(3-(4-methyl-3,4-dihydroquinolin-1(2H)-yl)-1H-pyrazolo[3,4-b]pyrazin-6-yl)piperidin-4-yl)methanamine] was tested, and the IC50 was < 1000 nM.
For `CC1(CN)CCN(c2cnc3c(N4CCCc5nc(N)ccc54)n[nH]c3n2)CC1` [Compound 51, 5-(6-(4-(aminomethyl)-4-methylpiperidin-1-yl)-1H-pyrazolo[3,4-b]pyrazin-3-yl)-5,6,7,8-tetrahydro-1,5-naphthyridin-2-amine], the IC50 was < 1000 nM.
With `CC1(CN)CCN(c2cnc3c(N4CCCc5c(F)cccc54)n[nH]c3n2)CC1` [Compound 52] the IC50 was < 1000 nM.
With `NC1CCCC12CCN(c1cnc3c(N4CCCc5ncccc54)n[nH]c3n1)CC2` (stereo not drawn) [Compound 53, 8-(3-(3,4-dihydro-1,5-naphthyridin-1(2H)-yl)-1H-pyrazolo[3,4-b]pyrazin-6-yl)-8-azaspiro[4.5]decan-1-amine] the IC50 was < 1000 nM.
With `CC1(N)CCN(c2cnc3c(N4CCCc5cc(C(N)=O)ccc54)n[nH]c3n2)CC1` [Compound 54, 1-(6-(4-amino-4-methylpiperidin-1-yl)-1H-pyrazolo[3,4-b]pyrazin-3-yl)-1,2,3,4-tetrahydroquinoline-6-carboxamide] the IC50 was < 1000 nM.
`NC1CCOC12CCN(c1cnc3c(N4CCCc5ncccc54)n[nH]c3n1)CC2` (stereo not drawn) [Compound 55, 8-(3-(3,4-dihydro-1,5-naphthyridin-1(2H)-yl)-1H-pyrazolo[3,4-b]pyrazin-6-yl)-1-oxa-8-azaspiro[4.5]decan-4-amine] was tested, and the IC50 was < 1000 nM.
`CC(=O)N1CCN(c2n[nH]c3nc(N4CCC(C)(N)CC4)cnc23)c2ccccc21` [Compound 56] was tested, and the IC50 was < 1000 nM.
`COc1cccc2c1CCCN2c1n[nH]c2nc(N3CCC(C)(CN)CC3)cnc12` [Compound 57] was tested, and the IC50 was < 1000 nM.
With `CC1(CN)CCN(c2cnc3c(N4CCCc5cc(C(N)=O)ccc54)n[nH]c3n2)CC1` [Compound 58, 1-(6-(4-(aminomethyl)-4-methylpiperidin-1-yl)-1H-pyrazolo[3,4-b]pyrazin-3-yl)-1,2,3,4-tetrahydroquinoline-6-carboxamide] the IC50 was < 1000 nM.
For `CC1(N)CCN(c2cnc3c(N4CCCc5c(-c6ccccn6)cccc54)n[nH]c3n2)CC1` [Compound 59], the IC50 was < 1000 nM.
`CC1(N)CCN(c2cnc3c(N4CCCc5c(-c6cccnc6)cccc54)n[nH]c3n2)CC1` [Compound 60] was tested, and the IC50 was < 1000 nM.
With `Cn1cc(-c2cccc3c2CCCN3c2n[nH]c3nc(N4CCC(C)(N)CC4)cnc23)cn1` [Compound 61] the IC50 was < 1000 nM.
For `Cn1cc(-c2ccc3c(n2)CCCN3c2n[nH]c3nc(N4CCC(C)(N)CC4)cnc23)cn1` [Compound 62], the IC50 was < 1000 nM.
For `CC1(CN)CCN(c2cnc3c(N4CCCc5cc(C(F)(F)F)ccc54)n[nH]c3n2)CC1` [Compound 63], the IC50 was < 1000 nM.
In the case of `CC1(N)CCN(c2cnc3c(N4CCCc5c(-c6nccs6)cccc54)n[nH]c3n2)CC1` [Compound 64], the IC50 is reported as < 1000 nM.
With `CC1(CN)CCN(c2cnc3c(N4CCCc5c(-c6ccccc6)cccc54)n[nH]c3n2)CC1` [Compound 65] the IC50 was < 1000 nM.
For `CC1(CN)CCN(c2cnc3c(N4CCCc5c(-c6cccnc6)cccc54)n[nH]c3n2)CC1` [Compound 66], the IC50 was < 1000 nM.
For `Cc1ccncc1-c1cccc2c1CCCN2c1n[nH]c2nc(N3CCC(C)(N)CC3)cnc12` [Compound 67], the IC50 was < 1000 nM.
With `CC1(CN)CCN(c2cnc3c(N4CCN(c5cccnc5)c5ccccc54)n[nH]c3n2)CC1` [Compound 68] the IC50 was < 1000 nM.
For `CC1(CN)CCN(c2cnc3c(N4CCCc5c(-c6ccc(F)cc6)cccc54)n[nH]c3n2)CC1` [Compound 69], the IC50 was < 1000 nM.
For `CC1(CN)CCN(c2cnc3c(N4CCCc5c(-c6ccc(F)c(F)c6)cccc54)n[nH]c3n2)CC1` [Compound 70], the IC50 was < 1000 nM.
For `CC1(N)CCN(c2cnc3c(N4CCCc5c(-c6nc(C(=O)O)cs6)cccc54)n[nH]c3n2)CC1` [Compound 71, 2-(1-(6-(4-amino-4-methylpiperidin-1-yl)-1H-pyrazolo[3,4-b]pyrazin-3-yl)-1,2,3,4-tetrahydroquinolin-5-yl)thiazole-4-carboxylic acid], the IC50 was < 1000 nM.
`CC1(CN)CCN(c2cnc3c(N4CCCc5c(-c6cc(F)c(F)c(F)c6)cccc54)n[nH]c3n2)CC1` [Compound 72] was tested, and the IC50 was < 1000 nM.
For `Cc1nnc2c(-c3cccc4c3CCCN4c3n[nH]c4nc(N5CCC(C)(CN)CC5)cnc34)cccn12` [Compound 73], the IC50 was < 1000 nM.
With `CC1(CN)CCN(c2cnc3c(N4CCCc5c(-c6cccc(Oc7ccccc7)c6)cccc54)n[nH]c3n2)CC1` [Compound 75] the IC50 was < 1000 nM.
In the case of `NCC1(F)CCN(c2cnc3c(N4CCCc5ncccc54)n[nH]c3n2)CC1` [Compound 76], the IC50 is reported as < 1000 nM.
In the case of `CC1(CN)CCN(c2cnc3c(N4CCCc5cc(C#N)ccc54)n[nH]c3n2)CC1` [Compound 77], the IC50 is reported as < 1000 nM.
`CC1(CN)CCN(c2cnc3c(N4CCCc5c(C(F)F)cccc54)n[nH]c3n2)CC1` [Compound 78] was tested, and the IC50 was < 1000 nM.
With `CNC(=O)c1cccc2c1CCCN2c1n[nH]c2nc(N3CCC(C)(CN)CC3)cnc12` [Compound 79, 1-(6-(4-(Aminomethyl)-4-methylpiperidin-1-yl)-1H-pyrazolo[3,4-b]pyrazin-3-yl)-N-methyl-1,2,3,4-tetrahydroquinoline-5-carboxamide] the IC50 was < 1000 nM.
`CN(C)C(=O)c1cccc2c1CCCN2c1n[nH]c2nc(N3CCC(C)(CN)CC3)cnc12` [Compound 80, 1-(6-(4-(Aminomethyl)-4-methylpiperidin-1-yl)-1H-pyrazolo[3,4-b]pyrazin-3-yl)-N,N-dimethyl-1,2,3,4-tetrahydroquinoline-5-carboxamide] was tested, and the IC50 was < 1000 nM.
With `COC(=O)c1ccc2c(n1)CCCN2c1n[nH]c2nc(N3CCC(C)(CN)CC3)cnc12` [Compound 81] the IC50 was < 1000 nM.
`NCC1(CO)CCN(c2cnc3c(N4CCCc5ncccc54)n[nH]c3n2)CC1` [Compound 82, (4-(aminomethyl)-1-(3-(3,4-dihydro-1,5-naphthyridin-1(2H)-yl)-1H-pyrazolo[3,4-b]pyrazin-6-yl)piperidin-4-yl)methanol dihydrochloride] was tested, and the IC50 was < 1000 nM.
For `CCCC1CCN(c2n[nH]c3nc(N4CCC(C)(CN)CC4)cnc23)c2ccccc21` (stereo not drawn) [Compound 83], the IC50 was < 1000 nM.
With `CCC1CCN(c2n[nH]c3nc(N4CCC(C)(CN)CC4)cnc23)c2ccccc21` (stereo not drawn) [Compound 84] the IC50 was < 1000 nM.
With `CCc1cccc2c1CCCN2c1n[nH]c2nc(N3CCC(C)(CN)CC3)cnc12` [Compound 85] the IC50 was < 1000 nM.
With `CC1(CN)CCN(c2cnc3c(N4CCCc5c(C6CC6)cccc54)n[nH]c3n2)CC1` [Compound 86] the IC50 was < 1000 nM.
With `CC1(CN)CCN(c2cnc3c(N4CCCc5c(C#N)cccc54)n[nH]c3n2)CC1` [Compound 87] the IC50 was < 1000 nM.
In the case of `CC1(CN)CCN(c2cnc3c(N4CCC(C)(C)c5ccccc54)n[nH]c3n2)CC1` [Compound 88], the IC50 is reported as < 1000 nM.
`CC(C)C1CCN(c2n[nH]c3nc(N4CCC(C)(CN)CC4)cnc23)c2ccccc21` (stereo not drawn) [Compound 89] was tested, and the IC50 was < 1000 nM.
`Cc1ccnc2c1N(c1n[nH]c3nc(N4CCC(C)(CN)CC4)cnc13)CCC2` [Compound 90] showed an IC50 of 1000 to 10000 nM.
For `CC(C)c1cccc2c1CCCN2c1n[nH]c2nc(N3CCC(C)(CN)CC3)cnc12` [Compound 91], the IC50 was < 1000 nM.
